This is an account of results in US20060051352A1, “CEA binding agents and compositions to reverse CEA-mediated tumorigenic effects on human cancer cells, restore sensitivity to drug induced apoptosis and uses thereof” (priority 2004, published 2006).

Bridge positions count the residues as written; N and C are the ends.

In assay [1] the test system is human colorectal carcinoma cell lines, SW-1222 and LS-180. The conditions noted are these: A20 Fab 100 μg/ml ex vivo, 0.5 mg/dose iv daily day 3-8; taxol 5 nM ex vivo, 5 mg/kg ip day 4; analysis day 9.
Description: The efficacy was investigated by a treatment protocol in which the ability of the treated cells to conform to normal colonic tissue architecture and to fail to form tumors, was assessed.
Several experiments were conducted in which the effect on two human colorectal carcinoma cell lines (test cells), when mixed in a defined proportion with normal fetal rat colonic cells and grown as aggregates implanted under the kidney capsule of nude mice, of taxol alone, taxol in combination with irrelevant isotype matched control P3X Fabs, and taxol in combination with A20 Fabs, was compared. The test cells in the “mini-colons” that developed after 7-10 days were assessed for either conformance to normal crypt-like tissue architecture or for formation of tumors (43).
With this in mind, the treatment regimen employed subjecting the test cells to the maximum possible dose over the course of the assay. This regimen included three administrations of A20 Fabs to the test cells in the ex vivo portion of the assay (pre-treatment, during which the aggregates are constructed), followed by daily intravenous injections during the in vivo growth of the implanted aggregates (therapeutic treatment). Pre-treatment of the test cells with A20 Fabs at 100 μg/ml commenced on day 0. […]
Assay [2] relates to human colorectal carcinoma cells. Description: Lung metastases of human colorectal carcinoma cells in nude mice. The format is in vivo. The conditions noted are these: after 30 days; PEG-A20Fab 200 μg iv, Taxol 5 mg/kg ip every 6 days; versus untreated animals. How it is done:
Mice were inoculated by intravenous injection of human colorectal carcinoma cells on day 0. Treatment was initiated either immediately following inoculation or 12 hours thereafter. PEGylated A20 Fab fragments (PEG-A20Fab) were administered intravenously (200 μg or 7-8 mg/kg) every day for the first 2 days followed by every 3 days thereafter. Taxol was administered at 5 mg/kg every 6 days (ip). After 30 days, the number of lung surface colonies, representing metastases, were counted.

Assay [3] deals with CEA-mediated intercellular adhesion. Conditions: from references (16), (29); cited from earlier work.
Assay [4] deals with T1, human carcinoembryonic antigen (CEA), wild type (human, UniProt P06731 35-685, glycophosphatidyl inositol (GPI) membrane anchor).
T1 sequence (looked up): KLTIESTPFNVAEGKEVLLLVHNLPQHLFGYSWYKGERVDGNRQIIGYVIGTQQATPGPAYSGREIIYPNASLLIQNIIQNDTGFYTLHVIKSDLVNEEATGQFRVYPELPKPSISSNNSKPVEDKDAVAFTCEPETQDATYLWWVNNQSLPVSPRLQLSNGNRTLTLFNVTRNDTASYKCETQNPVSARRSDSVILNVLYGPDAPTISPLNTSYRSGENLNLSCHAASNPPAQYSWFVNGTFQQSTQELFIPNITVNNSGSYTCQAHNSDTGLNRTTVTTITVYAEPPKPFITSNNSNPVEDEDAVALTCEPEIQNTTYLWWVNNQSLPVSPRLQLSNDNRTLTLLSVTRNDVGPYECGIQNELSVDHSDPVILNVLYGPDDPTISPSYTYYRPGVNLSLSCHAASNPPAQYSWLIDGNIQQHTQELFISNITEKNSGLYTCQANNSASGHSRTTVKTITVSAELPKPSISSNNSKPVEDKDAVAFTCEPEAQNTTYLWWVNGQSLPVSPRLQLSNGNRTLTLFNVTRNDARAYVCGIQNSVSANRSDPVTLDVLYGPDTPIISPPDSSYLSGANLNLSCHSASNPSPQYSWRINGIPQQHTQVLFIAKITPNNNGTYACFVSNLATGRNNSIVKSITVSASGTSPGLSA
Description: cell-based or functional assay.

For `CC(=O)O[C@H]1C(=O)[C@@]2(C)[C@H]([C@H](OC(=O)c3ccccc3)[C@]3(O)C[C@H](OC(=O)[C@H](O)[C@@H](NC(=O)c4ccccc4)c4ccccc4)C(C)=C1C3(C)C)[C@]1(OC(C)=O)CO[C@@H]1C[C@@H]2O` [Taxol, Paclitaxel], the “tumor growth in mini-colons” value in assay [1] is “much larger, more solid and less differentiated”. In addition, the “number of lung surface colonies” value in assay [2] is listed as “no effect”.

Take “H-CQNDTGC-OH (disulfide 1-7; also: synthetic cyclic peptide) [cyclized peptide representing subdomain 3 of the CEA N domain]”: the “inhibition of CEA-mediated intercellular adhesion” value in assay [3] is given as “effective in inhibiting CEA-mediated intercellular adhesion”.

B1: cyclized peptide H-CQNDTGC-OH (subdomain 3) (peptide)
peptide: H-CQNDTGC-OH
modifications: disulfide 1-7
SMILES: C[C@@H](O)[C@@H]1NC(=O)[C@H](CC(=O)O)NC(=O)[C@H](CC(N)=O)NC(=O)[C@H](CCC(N)=O)NC(=O)[C@@H](N)CSSC[C@@H](C(=O)O)NC(=O)CNC1=O
For B1, the “release of CEA-imposed myogenic differentiation block, % fusion of L6 (CEA) cells at 100 µM peptide” value in assay [4] was determined as 36 % fusion.

B2: cyclized peptide H-CGNRQIIC-OH (subdomain 2) (peptide)
peptide: H-CGNRQIIC-OH
modifications: disulfide 1-8
SMILES: CC[C@H](C)[C@@H]1NC(=O)[C@H](CCC(N)=O)NC(=O)[C@H](CCCNC(=N)N)NC(=O)[C@H](CC(N)=O)NC(=O)CNC(=O)[C@@H](N)CSSC[C@@H](C(=O)O)NC(=O)[C@H]([C@@H](C)CC)NC1=O
As to B2, the “release of CEA-imposed myogenic differentiation block, % fusion of L6 (CEA) cells at 100 µM peptide” value in assay [4] turned out to be 28 % fusion.

B3: cyclized peptide H-CGYSWYKC-OH (subdomain 1) (peptide)
peptide: H-CGYSWYKC-OH
modifications: disulfide 1-8
SMILES: NCCCC[C@@H]1NC(=O)[C@H](Cc2ccc(O)cc2)NC(=O)[C@H](Cc2c[nH]c3ccccc23)NC(=O)[C@H](CO)NC(=O)[C@H](Cc2ccc(O)cc2)NC(=O)CNC(=O)[C@@H](N)CSSC[C@@H](C(=O)O)NC1=O
Regarding B3, in assay [4], the “release of CEA-imposed myogenic differentiation block, % fusion of L6 (CEA) cells at 100 µM peptide” value was found to be 18 % fusion.
